The values below come from patent US20140005164A1, “WNT PATHWAY ANTAGONISTS” (Siena Biotech S.p.A., priority 2011, published 2014).

Where two headings read alike, the source gives them in different places.

This test concerns Wnt/β-catenin pathway. Nature of the test: Wnt reporter assay (TCF-Luciferase, Firefly) in DBTRG-05MG cells. Conditions: Homo sapiens, read-out: IC50 value in the reporter assay. In kind it is cell-based. How it is done: Three copies of a 4×TCF responsive elements were cloned into the pcDNA3.1/Zeo(+) vector (Invitrogen) after deletion of the constitutive CMV promoter and the insertion of the Firefly Luciferase from Promega (phFL-TK) to measure the activity of the Wnt/β-catenin pathway. The resulting plasmid was sequenced for quality control.
Cells were grown in 20 μg/ml Zeocin and 20 μg/ml Zeocin plus 30 μg/ml Hygromicin respectively. The cells were plated at a density of 6500 cells/well in poly-D-lysine pre-treated 96 well-plates.
36 hours after plating cells were incubated with 8-points dilutions compound (0.6% DMSO (v/v)). Each compound was tested in triplicate in single plate. Luciferase detection was done with Dual-Luciferase Reporter Assay System (Promega). 24 hours after compound addition, media was removed and 30 μl of 1× lysis buffer was added to each well for 30 minutes. To each well 45 μl of Dual-Glo Luciferase reagent (Promega) were added and after 1 second delay Luciferase was detected for 1 second using Mithras LB940 instrument. After Firefly luciferase quantification 45 μl of Dual Stop & Glo reagent (Promega) were added to each well and […] Renilla was detected using the same parameters described before.
Data were expressed as % of control for Firefly and Renilla luciferase independently; values were calculated using XLFit version 4.2, with a four parameters sigmoid function (XLFit model 205).

The mark [1] stands for this setting: TCF-Luciferase (Firefly) read out, 24 hours after compound addition, range given with mixed units nM and μM.

Consider `Cn1c(=O)n(C[C@H]2CC[C@H](c3nnc(-c4cccnc4)o3)CC2)c2cc(C#N)ccc21` [Example 124], for which, under setting [1], the 50% inhibitory concentration (IC50) lay within 35 to 23000 nM.
`COc1cc2c(cc1F)n(C)c(=O)n2C[C@H]1CC[C@H](c2nnc(-c3cccnc3)o2)CC1` [Example 175]: the half-maximal inhibitory concentration (IC50) under setting [1] lay within 35 to 23000 nM.
Same read-out and setting: the same measure for `COc1cc2c(cc1F)n(C)c(=O)n2C[C@H]1CC[C@H](C(=O)N2CCN(c3cnn(C)c3)CC2)CC1` [Example 183]: 35 to 23000 nM; for `COc1ccc2c(c1)n(C[C@H]1CC[C@H](C(=O)N3CCN(c4cc(C)no4)CC3)CC1)c(=O)n2C` [Example 144]: 35 to 23000 nM.
The same measure, in the same setting: the same measure for `COc1ccc2c(c1)n(C[C@H]1CC[C@H](C(=O)Nc3ccnc(N4CCOCC4)c3)CC1)c(=O)n2C` [Example 50]: 35 to 23000 nM; for `Cn1c(=O)n(C[C@H]2CC[C@H](C(=O)Nc3ccncc3)CC2)c2[nH]c(=O)ccc21` [Example 139]: 35 to 23000 nM.
On the same count and under the same terms, the same measure for `COc1ccc2c(c1)n(C[C@H]1CC[C@H](C(=O)N3CCN(c4cccc(C(F)(F)F)n4)CC3)CC1)c(=O)n2C` [Example 87]: 35 to 23000 nM; for `COc1ccc2c(c1)n(C[C@H]1CC[C@H](C(=O)Nc3ccncc3F)CC1)c(=O)n2C` [Example 38]: 35 to 23000 nM; for `COCCNc1ccc2c(c1)n(C[C@H]1CC[C@H](C(=O)N3CCN(C(C)=O)CC3)CC1)c(=O)n2C` [Example 15, 3-[trans-4-(4-Acetyl-piperazine-1-carbonyl)-cyclohexylmethyl]-5-(2-methoxy-ethylamino)-1-methyl-1,3-dihydro-benzoimidazol-2-one]: 35 to 23000 nM.
`COc1ccc2c(c1)n(C[C@H]1CC[C@H](C(=O)N3CCN(c4cnccn4)CC3)CC1)c(=O)n2C` [Example 60]: the 50% inhibitory concentration (IC50) under setting [1] was 35 to 23000 nM.
Still for that read-out and setting: to `Cc1cc(NC(=O)[C@H]2CC[C@H](Cn3c(=O)n(C)c4cc(Cl)ccc43)CC2)ccn1` [Example 48] belongs 35 to 23000 nM.
Still for that read-out and setting: the same measure for `COc1ccc2c(c1)n(C[C@H]1CC[C@H](C(=O)N3CCC(c4noc(C)n4)CC3)CC1)c(=O)n2C` [Example 84]: 35 to 23000 nM; for `CC(=O)N1CCN(C(=O)[C@H]2CC[C@H](Cn3c(=O)n(C)c4ccc(CCCC#N)nc43)CC2)CC1` [Example 101]: 35 to 23000 nM.
The same measure, in the same setting: the same measure for `Cn1c(=O)n(C[C@H]2CC[C@H](C(=O)Nc3ccncc3)CC2)c2cc(C3CC3)ccc21` [Example 69]: 35 to 23000 nM; for `COc1ccc2c(c1)n(C[C@H]1CC[C@H](C(=O)N3CCNC(=O)C3)CC1)c(=O)n2C` [Example 105]: 35 to 23000 nM; for `Cn1cc(C2=CCN(C(=O)[C@H]3CC[C@H](Cn4c(=O)n(C)c5ccc(C#N)cc54)CC3)CC2)cn1` [Example 154]: 35 to 23000 nM.
Take `COC/C=C/c1ccc2c(n1)n(C[C@H]1CC[C@H](C(=O)Nc3ccncc3)CC1)c(=O)n2C` [Example 114]: the half-maximal inhibitory concentration (IC50) under setting [1] is 35 to 23000 nM.
The same measure, in the same setting: the same measure for `COc1ccc2c(c1)n(C[C@H]1CC[C@H](C(=O)N3CC4(COC4)C3)CC1)c(=O)n2C` [Example 95]: 35 to 23000 nM.
Consider `Cn1c(=O)n(C[C@H]2CC[C@H](C(=O)N3CCN(c4ncccn4)CC3)CC2)c2cc(C(F)(F)F)ccc21` [Example 25], for which the IC50 under setting [1] fell in the range of 35 to 23000 nM.
With `Cn1ccc(N2CCN(C(=O)[C@H]3CC[C@H](Cn4c(=O)n(C)c5ccc(=O)[nH]c54)CC3)CC2)n1` [Example 134], the 50% inhibitory concentration (IC50) under setting [1] lay in the range of 35 to 23000 nM.
Same read-out and setting: the same measure for `COc1ccc2c(c1)n(C[C@H]1CC[C@H](C(=O)Nc3ccn(C)n3)CC1)c(=O)n2C` [Example 133]: 35 to 23000 nM; for `COc1ccc2c(c1)n(C[C@H]1CC[C@H](C(=O)Nc3ccnc(Cl)c3)CC1)c(=O)n2C` [Example 32]: 35 to 23000 nM.
`CN(C)CCN(C)c1ccc2c(n1)n(C[C@H]1CC[C@H](C(=O)Nc3ccncc3)CC1)c(=O)n2C` [Example 5, Trans-4-{5-[(2-Dimethylamino-ethyl)-methyl-amino]-1-methyl-2-oxo-1,2-dihydro-imidazo[4,5-b]pyridin-3-ylmethyl}-cyclohexanecarboxylic acid pyridin-4-ylamide]: the IC50 (24 h) was in the range of 35 to 23000 nM.
With `COc1ccc2c(c1)n(C[C@H]1CC[C@H](C(=O)N3CCN(c4cc(C)nc(C)c4)CC3)CC1)c(=O)n2C` [Example 94], under setting [1], the 50% inhibitory concentration (IC50) fell in the range of 35 to 23000 nM.
Still for that read-out and setting: the same measure for `Cn1cc(C2=CCN(C(=O)[C@H]3CC[C@H](Cn4c(=O)n(C)c5ccc(OC(F)F)cc54)CC3)CC2)cn1` [Example 166]: 35 to 23000 nM; for `COc1ccc2c(c1)n(C[C@H]1CC[C@H](c3nnc(C4CCOCC4)o3)CC1)c(=O)n2C` [Example 145]: 35 to 23000 nM.
With `Cc1cnccc1NC(=O)[C@H]1CC[C@H](Cn2c(=O)n(C)c3ccc(C4CC4)cc32)CC1` [Example 70], the half-maximal inhibitory concentration (IC50) under setting [1] lay in the range of 35 to 23000 nM.
Same read-out and setting: the same measure for `Cn1c(=O)n(C[C@H]2CC[C@H](C(=O)N3CCN(c4nccs4)CC3)CC2)c2cc(C(F)(F)F)ccc21` [Example 24]: 35 to 23000 nM; for `COCCOc1cc(NC(=O)[C@H]2CC[C@H](Cn3c(=O)n(C)c4c(Cl)cccc43)CC2)ccn1` [Example 42]: 35 to 23000 nM; for `Cn1c(=O)n(C[C@H]2CC[C@H](C(=O)Nc3ccncc3)CC2)c2cc(OCc3ccncc3)ccc21` [Example 151]: 35 to 23000 nM.
Same read-out and setting: the same measure for `Cn1c(=O)n(C[C@H]2CC[C@H](C(=O)N3CCN(c4nccs4)CC3)CC2)c2c(Cl)cccc21` [Example 23]: 35 to 23000 nM; for `Cn1cc(C2=CCN(C(=O)[C@H]3CC[C@H](Cn4c(=O)n(C)c5ccc(=O)[nH]c54)CC3)CC2)cn1` [Example 135]: 35 to 23000 nM.
For the molecule `Cn1c(=O)n(C[C@H]2CC[C@H](C(=O)Nc3ccncc3)CC2)c2c(Cl)cccc21` [Example 28], the IC50 under setting [1] lay within 35 to 23000 nM.
Still for that read-out and setting: to `COc1ccc2c(c1)n(C[C@H]1CC[C@H](c3nnc(-c4cccc(OC(F)F)c4)o3)CC1)c(=O)n2C` [Example 118] belongs 35 to 23000 nM; to `Cn1c(=O)n(C[C@H]2CC[C@H](C(=O)N3CCN(c4ccncc4)CC3)CC2)c2cc(C(F)(F)F)ccc21` [Example 73], 35 to 23000 nM; to `COc1ccc2c(c1)n(C[C@H]1CC[C@H](C(=O)Nc3ccc(-c4nnco4)cc3)CC1)c(=O)n2C` [Example 66], 35 to 23000 nM.
As to `COCCOc1ccc2c(c1)n(C[C@H]1CC[C@H](C(=O)N3CC=C(c4cnn(C)c4)CC3)CC1)c(=O)n2C` [Example 130], the IC50 under setting [1] was in the range of 35 to 23000 nM.
On the same count and under the same terms, to `Cn1c(=O)n(C[C@H]2CC[C@H](C(=O)N3CCN(c4ncccn4)CC3)CC2)c2cc(Cl)ccc21` [Example 47] belongs 35 to 23000 nM.
The same measure, in the same setting: to `COc1ccc2c(c1)n(C[C@H]1CC[C@H](c3nnc(-c4ccncc4F)o3)CC1)c(=O)n2C` [Example 109] belongs 35 to 23000 nM; to `CC(=O)N1CCN(C(=O)[C@H]2CC[C@H](Cn3c(=O)n(C)c4ccc(O)cc43)CC2)CC1` [Example 16, 3-[trans-4-(4-Acetyl-piperazine-1-carbonyl)-cyclohexylmethyl]-5-hydroxy-1-methyl-1,3-dihydro-benzoimidazol-2-one], 35 to 23000 nM; to `Cn1c(=O)n(C[C@H]2CC[C@H](C(=O)Nc3ccncc3)CC2)c2cc(OCCC=C(F)F)ccc21` [Example 138], 35 to 23000 nM.
As to `CCOCc1nnc([C@H]2CC[C@H](Cn3c(=O)n(C)c4ccc(OC)cc43)CC2)o1` [Example 107], the IC50 under setting [1] fell in the range of 35 to 23000 nM.
On the same count and under the same terms, the same measure for `COc1ccc2c(c1)n(C[C@H]1CC[C@H](C(=O)N3[C@H](C)CCC[C@@H]3C)CC1)c(=O)n2C` [Example 59]: 35 to 23000 nM; for `Cn1c(=O)n(C[C@H]2CC[C@H](C(=O)N3CCN(c4nccs4)CC3)CC2)c2cc(Cl)ccc21` [Example 53]: 35 to 23000 nM; for `COc1ccc2c(n1)n(C[C@H]1CC[C@H](C(=O)N3CCN(c4ncccn4)CC3)CC1)c(=O)n2C` [Example 26]: 35 to 23000 nM.
Turning to `COc1cc2c(cc1F)n(C)c(=O)n2C[C@H]1CC[C@H](C(=O)Nc2ccnnc2)CC1` [Example 169], the IC50 under setting [1] lay within 35 to 23000 nM.
On the same count and under the same terms, the same measure for `Cn1c(=O)n(C[C@H]2CC[C@H](C(=O)Nc3ccnc(N4CCOCC4)c3)CC2)c2cc(Cl)ccc21` [Example 41]: 35 to 23000 nM.
Same read-out and setting: the same measure for `COc1ccc2c(c1)n(C[C@H]1CC[C@H](C(=O)N3CCN(c4ccc(C#N)nc4)CC3)CC1)c(=O)n2C` [Example 88]: 35 to 23000 nM.
For `Cn1c(=O)n(C[C@H]2CC[C@H](C(=O)Nc3ccncc3)CC2)c2nc(OCCN3CCOCC3)ccc21` [Example 158], under setting [1], the half-maximal inhibitory concentration (IC50) fell in the range of 35 to 23000 nM.
Same read-out and setting: the same measure for `COc1ccc2c(c1)n(C[C@H]1CC[C@H](c3nnc(-c4cccnc4)o3)CC1)c(=O)n2C` [Example 96]: 35 to 23000 nM; for `COCCOc1ccc2c(n1)n(C[C@H]1CC[C@H](C(=O)N3CCN(c4cnn(C)c4)CC3)CC1)c(=O)n2C` [Example 174]: 35 to 23000 nM.
Still for that read-out and setting: the same measure for `COc1ccc2c(c1)n(C[C@H]1CC[C@H](C(=O)N3CCN(c4ccnc(F)c4)CC3)CC1)c(=O)n2C` [Example 79]: 35 to 23000 nM; for `COc1ccc2c(c1)n(C[C@H]1CC[C@H](C(=O)N3CCN(c4ccnc(OC)c4)CC3)CC1)c(=O)n2C` [Example 91]: 35 to 23000 nM; for `COc1cc(NC(=O)[C@H]2CC[C@H](Cn3c(=O)n(C)c4ccc(Cl)cc43)CC2)ccn1` [Example 52]: 35 to 23000 nM.
The same measure, in the same setting: the same measure for `COCCNc1ccc2c(c1)n(C[C@H]1CC[C@H](C(=O)Nc3ccncc3)CC1)c(=O)n2C` [Example 78]: 35 to 23000 nM.
